For test [1], the system named is bacterial growth. Also noted: method as in Bravo et al., 2005. As to conditions: high concentrations (1,000 µg/ml); ref Bravo et al., 2005; cited from earlier work.
The subject of test [2] is S. aureus ATCC. More on the design: method as in Bravo et al., 2005. The note with it: 250 µg/ml; ref Bravo et al., 2005; cited from earlier work.
Test [3] relates to B. subtilis. Put plainly: Antibacterial MIC, broth microdilution, phytopathogens. As to conditions: Bacillus subtilis; GP B. subtilis; 24 h; tested 12.5 to 1,600 µg/ml; read-out: Minimum inhibitory concentration (MIC). Format: cell-based. How it is done:
(§1) The minimum inhibitory concentrations (MIC) were determined using the broth microdilution method ([Díaz et al., 2018]). Two-fold serial dilutions were added to the wells of sterile 96-well plates containing inoculated BBL™ Mueller Hinton II Broth medium suspensions of bacterial cells (1.0 x10^5 UFC/ml) of Agrobacterium tumefaciens and Bacillus subtilis. The final concentrations ranged from 12.5 to 1,600 µg/ml. Ethanol (1%) was used as the negative control and chloramphenicol (CALBIOCHEM; U.S. and Canada) was used as the positive control against both bacteria. MICs were determined according to the OD600 obtained in a Thermo Scientific Multiskan GO 96-well plate photometer. […] Assays were done in triplicate.
On the technique in general: Broth dilution looks for growth in wells or tubes with falling amounts of substance.

Test [4] relates to A. tumefaciens. The description is as above. Format: cell-based. The note with it: Agrobacterium tumefaciens; GN A. tumefaciens; 24 h; tested 12.5 to 1,600 µg/ml; read-out: Minimum inhibitory concentration (MIC). As for the experimental part:
as §1

The values that follow come from publication PMC7399337, “Biological Properties and Absolute Configuration of Flavanones From Calceolaria thyrsiflora Graham” (Frontiers in Pharmacology, 2020).

SMILES strings stand for the structures. In brackets after ≈: the same amount, converted by molar mass.

For the molecule `O=C(O)c1cc(O)c(O)c(O)c1` [gallic acid], the “inhibitory activity of bacterial growth” value in test [1] is on record as “inhibitory activity”. Moreover, the “inhibition activity of S. aureus ATCC” value in test [2] was 67.2%.

For `O=C(N[C@H](CO)[C@H](O)c1ccc([N+](=O)[O-])cc1)C(Cl)Cl` [Chloramphenicol], the MIC in test [3] and in test [4] was 12.5 µg/mL (≈ 38.7 µM) each time.
